The text below walks through data of article PMC7763917, “A Facile Semisynthesis and Evaluation of Garcinoic Acid and Its Analogs for the Inhibition of Human DNA Polymerase β” (Molecules, 2020).

The structures appear in SMILES notation.

One experiment concerns the target T1, human DNA polymerase β (hpol β) (Homo sapiens, UniProt P06746). Put plainly: fluorescence-based polymerase inhibition assay. As to conditions: 1 nM hpol β, 50 nM DNA, 100 μM dTTP, 25 °C; compounds tested from 1 μM to 120 μM; mean of triplicate; read-out: IC50 in inhibiting hpol β. It is filed as biochemical. The protocol: A fluorescence-based assay, as described previously, was used to determine the IC50 values for garcinoic acid and its homologs for human DNA polymerase β. DNA substrates were prepared as we reported previously. Briefly, a reporter strand conjugated with 5-carboxytetramethylrhodamine (TAMRA) and an unlabeled primer were annealed to a Black Hole Quencher (BHQ)-labelled template strand in a solution containing 10 mM Tris (pH 8.0) and 50 mM NaCl. The oligonucleotides were annealed in a 1:1.5:1.5 ratio for reporter, primer and template strand, respectively. The oligonucleotides were mixed and incubated for 3 min at 95 °C before cooling to room temperature.
The polymerase reaction was performed with 1 nM hpol β, 50 nM DNA, 100 μM dTTP and 2 mM MgCl2 in 50 mM Tris (pH 8.0) buffer containing 40 mM NaCl, 2 mM DTT and 0.01% (w/v) Tween 20. The reaction mix containing enzyme and dTTP were incubated for 5 min with the compound or DMSO in a 96-well plate before adding DNA to initiate the reaction. Polymerase reactions were performed at room temperature (25 °C). The plate was read continuously for one hour with a Synergy H4 plate reader (BioTek, λex = 525 nm, λem = 598 nm) (Winooski, VT, USA) after initiation of the reaction. The percent inhibition was calculated by dividing the rate of product formation at each compound concentration by the rate of product formation in DMSO control. The data was fit to a four-parameter logistic model with variable slope in Prism (San Diego, CA, USA) to calculate the IC50 values. The reactions were performed in triplicate and the mean IC50 value is reported with 95% confidence intervals.
On to `C/C(=C\CC/C(C)=C/CC[C@]1(C)CCc2cc(O)cc(C)c2O1)CC/C=C(\C)C(=O)O` [Compound 1, 13-[(R)-6-Hydroxy-2,8-dimethylchroman-2-yl]-2,6,10-trimethyltrideca-2E,6E,10E-trienoic acid], for which the IC50 came to 11 µM.

As to `C/C(=C\CC[C@]1(C)CCc2cc(O)cc(C)c2O1)C(=O)O` [Compound 9a, 5-[(R)-6-Hydroxy-2,8-dimethylchroman-2-yl]-2-methylpent-2E-enoic acid], the IC50 was more than 120 µM. Regarding `Cc1cc(O)cc2c1O[C@](C)(CC/C=C/C(=O)O)CC2` [Compound 9b, 5-[(R)-6-Hydroxy-2,8-dimethylchroman-2-yl]pent-2E-enoic acid], the IC50 is more than 120 µM.

With `C/C(=C\CC[C@]1(C)CCc2cc(O)cc(C)c2O1)CC/C=C(\C)C(=O)O` [Compound 10a, 9-[(R)-6-Hydroxy-2,8-dimethylchroman-2-yl]-2,6-dimethylnona-2E,6E-dienoic acid], the IC50 is 52 µM. With `C/C(=C\CC[C@]1(C)CCc2cc(O)cc(C)c2O1)CC/C=C/C(=O)O` [Compound 10b, 9-[(R)-6-Hydroxy-2,8-dimethylchroman-2-yl]-6-methylnona-2E,6E-dienoic acid], the IC50 stood at 49 µM.

As for `C/C(=C\CC/C(C)=C/CC[C@]1(C)CCc2cc(O)cc(C)c2O1)CC/C=C/C(=O)O` [Compound 11, 13-[(R)-6-Hydroxy-2,8-dimethylchroman-2-yl]-6,10-dimethyltrideca-2E,6E,10E-trienoic acid], the IC50 stood at 23 µM. On the same count and under the same terms, as for `COC(=O)/C(C)=C/CC[C@]1(C)CCc2cc(O)cc(C)c2O1` [Compound 12a, Methyl 5-[(R)-6-hydroxy-2,8-dimethylchroman-2-yl]-2-methylpent-2E-enoate], the figure is more than 120 µM; as for `COC(=O)/C=C/CC[C@]1(C)CCc2cc(O)cc(C)c2O1` [Compound 12b, Methyl 5-[(R)-6-hydroxy-2,8-dimethylchroman-2-yl]pent-2E-enoate], more than 120 µM; as for `COC(=O)/C(C)=C/CC/C(C)=C/CC[C@]1(C)CCc2cc(O)cc(C)c2O1` [Compound 13a, Methyl 9-[(R)-6-hydroxy-2,8-dimethylchroman-2-yl]-2,6-dimethylnona-2E,6E-dienoate], more than 120 µM. Same read-out and setting: as for `COC(=O)/C=C/CC/C(C)=C/CC[C@]1(C)CCc2cc(O)cc(C)c2O1` [Compound 13b, Methyl 9-[(R)-6-hydroxy-2,8-dimethylchroman-2-yl]-6-methylnona-2E,6E-dienoate], the figure is more than 120 µM; as for `COC(=O)/C(C)=C/CC/C(C)=C/CC/C(C)=C/CC[C@]1(C)CCc2cc(O)cc(C)c2O1` [Compound 14a, Methyl 13-[(R)-6-hydroxy-2,8-dimethylchroman-2-yl]-2,6,10-trimethyltrideca-2E,6E,10E-trienoate], more than 120 µM; as for `COC(=O)/C=C/CC/C(C)=C/CC/C(C)=C/CC[C@]1(C)CCc2cc(O)cc(C)c2O1` [Compound 14b, Methyl 13-[(R)-6-hydroxy-2,8-dimethylchroman-2-yl]-6,10-dimethyltrideca-2E,6E,10E-trienoate], more than 120 µM. For the compound `COC(=O)/C(C)=C/CC/C(C)=C/CC/C(C)=C/CC[C@]1(C)CCc2cc(OC)cc(C)c2O1` [Compound 15, Methyl 13-[(R)-6-methoxy-2,8-dimethylchroman-2-yl]-2,6,10-trimethyltrideca-2E,6E,10E-trienoate], the IC50 was more than 120 µM. Still for that read-out and setting: as for `COc1cc(C)c2c(c1)CC[C@@](C)(CC/C=C(\C)CC/C=C(\C)CC/C=C(\C)C(=O)O)O2` [Compound 16, 13-[(R)-6-methoxy-2,8-dimethylchroman-2-yl]-2,6,10-trimethyltrideca-2E,6E,10E-trienoic Acid], the figure is 31 µM.

For a further experiment, the target named is T1, human DNA polymerase β (hpol β).
Assay: not given
Details: method as in PMID 16146411. As to conditions: garcinoic acid analog with the dihydropyran ring opened; not in Table 2, no reference printed at the sentence; cited from earlier work.
As for `C/C(=C\CC/C(C)=C/CC[C@@](C)(O)CCc1cc(O)cc(C)c1O)CC/C=C(\C)C(=O)O` [chrysochlamic acid], the “hpol β inhibition activity (in words)” value is listed as “lack of hpol β inhibition activity”.
